{"source": "patent US20170007561A1", "about": "“CONTEMPORANEOUS, HETEROGENEOUSLY-ORIENTED, MULTI-TARGETED THERAPEUTIC MODIFICATION AND/OR MODULATION OF DISEASE BY ADMINISTRATION OF SULFUR-CONTAINING, AMINO ACID-SPECIFIC SMALL MOLECULES” (BioNumerik Pharmaceuticals, Inc., priority 2014, published 2017)", "key": {"[1]": {"target": "Aminopeptidase N (Homo sapiens, UniProt P15144)", "sequence (P15144 whole entry)": "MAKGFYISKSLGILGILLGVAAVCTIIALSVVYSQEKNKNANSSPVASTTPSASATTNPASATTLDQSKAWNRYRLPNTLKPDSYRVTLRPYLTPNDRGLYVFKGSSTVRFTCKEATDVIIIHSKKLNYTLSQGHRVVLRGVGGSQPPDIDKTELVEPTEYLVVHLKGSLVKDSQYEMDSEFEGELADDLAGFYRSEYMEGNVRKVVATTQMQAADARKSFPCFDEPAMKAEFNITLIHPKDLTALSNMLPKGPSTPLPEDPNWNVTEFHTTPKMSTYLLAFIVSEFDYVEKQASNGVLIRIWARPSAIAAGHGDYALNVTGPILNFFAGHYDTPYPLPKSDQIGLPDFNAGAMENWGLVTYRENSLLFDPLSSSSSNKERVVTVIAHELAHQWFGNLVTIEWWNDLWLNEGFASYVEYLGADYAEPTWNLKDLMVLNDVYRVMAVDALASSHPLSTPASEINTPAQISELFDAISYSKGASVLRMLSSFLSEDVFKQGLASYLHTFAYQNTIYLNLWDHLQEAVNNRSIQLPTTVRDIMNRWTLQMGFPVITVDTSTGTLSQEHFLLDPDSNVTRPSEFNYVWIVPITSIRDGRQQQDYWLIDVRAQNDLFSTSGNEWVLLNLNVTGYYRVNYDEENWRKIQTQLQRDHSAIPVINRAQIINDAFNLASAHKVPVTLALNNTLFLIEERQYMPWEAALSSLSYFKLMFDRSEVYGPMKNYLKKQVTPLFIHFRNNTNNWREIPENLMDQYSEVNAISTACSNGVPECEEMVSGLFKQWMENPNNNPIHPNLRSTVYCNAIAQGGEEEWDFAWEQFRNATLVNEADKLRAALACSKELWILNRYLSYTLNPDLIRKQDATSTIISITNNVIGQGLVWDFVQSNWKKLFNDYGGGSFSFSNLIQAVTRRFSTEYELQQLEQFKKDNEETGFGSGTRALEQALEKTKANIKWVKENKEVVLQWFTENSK", "assay": "Aminopeptidase N activity (summary Table 27)", "type": "biochemical"}, "[2]": {"target": "T1, TrxR/Trx system (Homo sapiens, UniProt P10599)", "T1 construct": "purchased Sigma (Trx); American Diagnostica (bovine TrxR)", "T1 sequence (P10599 1-105)": "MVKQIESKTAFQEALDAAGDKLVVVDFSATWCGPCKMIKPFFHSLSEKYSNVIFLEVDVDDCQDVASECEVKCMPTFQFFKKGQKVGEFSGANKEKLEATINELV", "assay": "TrxR/Trx NADPH oxidation assay", "type": "biochemical", "from_the_text": "(Note: error bars are small and may be obscured by the symbols). […] (Note: error bars were omitted but assays were run in quadruplicate with typical errors of 5-8% between individual replicates). […] Panel D: Initial velocity reaction rates corresponding to progress curves shown in Panel C. With time, Trx-mesna and Trx-GSH are converted back to apo-Trx by Trx reductase (see also, FIG. 69, Panel E)."}, "[3]": {"tested_on": "Stage IV primary adenocarcinoma of the lung", "assay": "Tavocept Phase III Clinical Trial (interim analysis)", "type": "in vivo, human", "from_the_text": "In the Tavocept Phase III Clinical Trial pre-specification was made through stratification factors including sex (i.e., male versus female) and taxane treatment (i.e., paclitaxel versus docetaxel). Eligible patients had not received prior drug treatment for their cancer, and inclusion in the trial was also allowed for patients who had relapsed following surgery for earlier stage disease as well as patients with central nervous system metastasis. A total of 540 patients were enrolled on the trial.\nThe primary endpoint of this study was overall survival (OS); defined as the time period from the date of patient randomization to the date of death due to any cause.\nPatient eligibility was determined by compliance with protocol-specified inclusion and exclusion criteria.\nAll patients received standard combination chemotherapy (taxane agent plus cisplatin) and either Tavocept or placebo.\nTreatment was administered every 3 weeks for a maximum of 6 cycles (one treatment cycle=21 days).\nThe primary endpoint for analysis was the duration of overall survival, defined as the time from the date of randomization to the date of death due to any cause. The number of mortality events used for the final analysis depended upon the number of patients enrolled into the study (provided the sample size was adjusted at the interim analysis). For the primary analysis, the expected number of total mortality events was approximately 416 mortality events for a sample size of 575 patients.\nThe one-sided log-rank test was performed in order to allow the application of the adaptive methodology. Details of this 2-stage adaptive design are described below. Kaplan-Meier survival curves (including identification of censored observations) was presented by treatment group, as well as median survival times and their 95% confidence intervals.\nThe following specific endpoints were evaluated with pre-specified analyses in order to evaluate for potential clinically and statistically significant differences between Tavocept- and placebo-treated patients.\nThe incidence of cisplatin renal toxicity and anemia, and the impact of emesis on daily life were analyzed using the Cochran-Mantel-Haenszel (CMH) tests for proportions. The CMH test was applied in the comparison between Tavocept and placebo where adjustment for prognostic factors is clinically important (e.g., adjusting for baseline characteristics). To control for Type I error due to multiple comparisons of safety data, a nominal, 2-sided p-value of less than 0.0125 was used for each comparison of renal toxicity, anemia, and emesis."}, "[4]": {"target": "T2, human Trx with rat liver TrxR (Homo sapiens, UniProt P10599)", "T2 sequence (P10599 1-105)": "T1 sequence (P10599 1-105)", "assay": "TrxR/Trx insulin disulfide reduction assay (NADPH oxidation 340 nm, insulin B chain precipitation 650 nm)", "type": "biochemical", "conditions": "Tavocept 0-10 mM, insulin 86 μM"}, "[5]": {"target": "recombinant human Prx 1 (Homo sapiens, UniProt Q06830)", "sequence (Q06830 whole entry)": "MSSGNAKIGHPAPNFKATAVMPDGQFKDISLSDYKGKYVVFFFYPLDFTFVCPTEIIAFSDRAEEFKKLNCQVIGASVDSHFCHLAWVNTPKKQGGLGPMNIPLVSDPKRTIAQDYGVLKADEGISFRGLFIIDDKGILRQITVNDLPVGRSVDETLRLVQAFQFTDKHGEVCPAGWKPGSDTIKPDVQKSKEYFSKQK", "assay": "Prx assay coupled to Trx, TrxR and NADPH", "type": "biochemical", "conditions": "initial velocity", "description": "Prx activity in the buffer control (Apo-Prx) and the Tavocept-treated sample (Prx-mesna) was determined using the Prx assay outlined in FIG. 58. A typical assay mixture was 150 μL in final volume and contained HEPES Buffer (45 mM, pH 7.0, 1 mM EDTA), 350 μM NADPH, 0.12 μM rat liver TrxR, 80 μM insulin, 2.9 μM human Trx 1, and Prx (4.8 or 2.4 μM per assay). Assays were initiated by the addition of H2O2 (100 μM) and were monitored at 340 nm at 25° C. for 30 minutes using a using a Molecular Devices SpectraMax Plus UV/vis plate reader. Activity was calculated using a 4 minute linear portion of each assay and then this rate was converted into percent of control with the buffer treated Prx 1 reaction (Apo-Prx) serving as a 100% control. See, FIG. 59. […] This reduction in rate is approximately 43% in assays containing 2.4 μM Prx and 23% in assays containing 4.8 μM Prx. See, FIG. 59. […] Therefore, as the concentration of unmodified Prx increases, the turnover more nearly approaches the buffer control Apo-Prx samples."}, "[6]": {"target": "T790M EGFR kinase (Homo sapiens, UniProt P00533, T790M)", "sequence (P00533 25-1210 T790M)": "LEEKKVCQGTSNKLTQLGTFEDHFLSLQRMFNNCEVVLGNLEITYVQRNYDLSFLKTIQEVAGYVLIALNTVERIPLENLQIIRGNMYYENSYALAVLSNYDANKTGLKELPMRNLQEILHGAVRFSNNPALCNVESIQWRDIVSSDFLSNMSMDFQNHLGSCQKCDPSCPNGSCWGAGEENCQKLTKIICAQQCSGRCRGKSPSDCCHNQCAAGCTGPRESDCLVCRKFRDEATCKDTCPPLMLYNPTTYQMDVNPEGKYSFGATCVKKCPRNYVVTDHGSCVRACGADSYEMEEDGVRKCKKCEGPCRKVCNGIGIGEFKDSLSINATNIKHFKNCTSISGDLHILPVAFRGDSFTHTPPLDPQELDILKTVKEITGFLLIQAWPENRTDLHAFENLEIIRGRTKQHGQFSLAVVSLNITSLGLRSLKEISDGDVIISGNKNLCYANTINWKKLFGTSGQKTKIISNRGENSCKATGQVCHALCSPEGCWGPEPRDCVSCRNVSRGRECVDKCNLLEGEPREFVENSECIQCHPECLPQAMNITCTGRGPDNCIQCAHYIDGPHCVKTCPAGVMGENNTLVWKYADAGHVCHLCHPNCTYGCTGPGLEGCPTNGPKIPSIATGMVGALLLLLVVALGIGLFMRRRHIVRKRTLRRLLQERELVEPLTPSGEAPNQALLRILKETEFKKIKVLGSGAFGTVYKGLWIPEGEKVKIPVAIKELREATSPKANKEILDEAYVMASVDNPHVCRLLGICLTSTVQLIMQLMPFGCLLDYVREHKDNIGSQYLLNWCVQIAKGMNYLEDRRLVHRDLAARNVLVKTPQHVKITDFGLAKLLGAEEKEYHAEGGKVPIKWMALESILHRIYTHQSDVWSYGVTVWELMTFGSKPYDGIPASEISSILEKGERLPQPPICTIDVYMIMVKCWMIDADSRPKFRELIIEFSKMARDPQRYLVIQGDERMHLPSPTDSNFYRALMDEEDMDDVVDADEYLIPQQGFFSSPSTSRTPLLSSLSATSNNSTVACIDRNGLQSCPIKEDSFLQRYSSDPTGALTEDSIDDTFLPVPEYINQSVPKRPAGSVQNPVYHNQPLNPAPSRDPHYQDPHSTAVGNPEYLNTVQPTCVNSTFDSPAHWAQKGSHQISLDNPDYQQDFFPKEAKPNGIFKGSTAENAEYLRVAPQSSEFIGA", "assay": "EGFR kinase assay (ADP-glo, polyGT substrate), T790M mutant", "type": "biochemical"}}, "data": [{"smiles": "O=S(=O)([O-])CCSSCCS(=O)(=O)[O-].[Na+].[Na+]", "note": "[Tavocept, disodium 2,2′-dithio-bis-ethane sulfonate]", "values": [{"measurement": "Cellular consequence of BNP7787-modification and/or modulation: aminopeptidase N", "setting": "[1]", "value": "can inhibit γ-glutamyltranspeptidase and aminopeptidase N enzyme"}, {"measurement": "mode of action on Trx", "setting": "[2]", "value": "alternative substrate inhibitor"}, {"measurement": "NADPH oxidation by TrxR and Trx", "setting": "[2]; increasing concentrations of test substance", "value": "increases"}, {"measurement": "Median survival advantage versus placebo", "setting": "[3]; Male & Female Non-Smokers receiving paclitaxel and cisplatin", "value": 12, "unit": "months"}, {"measurement": "Median survival advantage versus placebo", "setting": "[3]; PS 1 ECOG Performance Status males and females receiving paclitaxel and cisplatin", "value": 4.0, "unit": "months"}, {"measurement": "Overall median survival advantage versus placebo", "setting": "[3]; all subjects, paclitaxel or docetaxel plus cisplatin", "value": "greater than 2 month"}, {"measurement": "Protection against chemotherapy-induced kidney toxicity", "setting": "[3]; compared to placebo", "value": "improvement in the relative creatine decrease from baseline in favor of Tavocept"}, {"measurement": "Anemia", "setting": "[3]; compared to placebo arm", "value": "reduced anemia"}, {"measurement": "Kaplan Meier overall survival curve slope", "setting": "[3]; during administration of up to 6 cycles, relative to Placebo arm", "value": "flattening of the slope of the survival curve for the Tavocept arm"}, {"measurement": "Median survival advantage versus placebo", "setting": "[3]; female subjects greater than or equal to 65 years of age receiving paclitaxel and cisplatin", "value": 2.1, "unit": "months"}, {"measurement": "Survival advantage", "setting": "[3]; female subjects with CNS Metastases present, paclitaxel plus cisplatin", "value": "Survival advantage in favor of Tavocept"}, {"measurement": "Median survival advantage versus placebo", "setting": "[3]; male and female subjects greater than or equal to 65 years of age receiving paclitaxel and cisplatin", "value": 3.5, "unit": "months"}, {"measurement": "Median period of additional survival after starting new chemotherapy, longer than placebo-treated patients", "setting": "[3]; patients previously receiving Tavocept, paclitaxel and cisplatin", "value": 3.4, "unit": "months"}, {"measurement": "Median survival advantage versus placebo", "setting": "[3]; subjects greater than or equal to 65 years of age", "value": 3, "unit": "months"}, {"measurement": "Effect on TrxR/Trx mediated rate of NADPH oxidation during insulin reduction", "setting": "[4]", "value": "an effect on the TrxR/Trx mediated rate of NADPH oxidation"}, {"measurement": "activity of Tavocept-modified Prx versus Apo-Prx", "setting": "[5]", "value": "less active"}, {"measurement": "inhibition of T790M EGFR kinase", "setting": "[6]; 10 μM or 100 μM ATP, physiological concentrations (<20 mM) of Tavocept", "value": "did not notably inhibit"}, {"measurement": "inhibitory activity on T790M EGFR kinase activity", "setting": "[6]; Tavocept alone, 10 μM ATP", "value": "essentially no inhibitory activity"}, {"measurement": "effect on Erlotinib inhibition of T790M EGFR kinase", "setting": "[6]; Tavocept in combination with Erlotinib, 10 μM ATP", "value": "strongly potentiated"}]}]}
